These results are taken from publication PMC3544079 (MedChemComm, 2011).

Assay type in all cases: biochemical
The target in one experiment is E. coli DXP synthase (Escherichia coli, UniProt P77488). The experiment is described as follows: E. coli DXP synthase inhibition, spectrophotometric coupled assay. The conditions noted are these: with respect to pyruvate.
Experiment [1] has as its target T1, S. cerevisiae transketolase (Saccharomyces cerevisiae, UniProt P23254).
T1 sequence (P23254 1-680): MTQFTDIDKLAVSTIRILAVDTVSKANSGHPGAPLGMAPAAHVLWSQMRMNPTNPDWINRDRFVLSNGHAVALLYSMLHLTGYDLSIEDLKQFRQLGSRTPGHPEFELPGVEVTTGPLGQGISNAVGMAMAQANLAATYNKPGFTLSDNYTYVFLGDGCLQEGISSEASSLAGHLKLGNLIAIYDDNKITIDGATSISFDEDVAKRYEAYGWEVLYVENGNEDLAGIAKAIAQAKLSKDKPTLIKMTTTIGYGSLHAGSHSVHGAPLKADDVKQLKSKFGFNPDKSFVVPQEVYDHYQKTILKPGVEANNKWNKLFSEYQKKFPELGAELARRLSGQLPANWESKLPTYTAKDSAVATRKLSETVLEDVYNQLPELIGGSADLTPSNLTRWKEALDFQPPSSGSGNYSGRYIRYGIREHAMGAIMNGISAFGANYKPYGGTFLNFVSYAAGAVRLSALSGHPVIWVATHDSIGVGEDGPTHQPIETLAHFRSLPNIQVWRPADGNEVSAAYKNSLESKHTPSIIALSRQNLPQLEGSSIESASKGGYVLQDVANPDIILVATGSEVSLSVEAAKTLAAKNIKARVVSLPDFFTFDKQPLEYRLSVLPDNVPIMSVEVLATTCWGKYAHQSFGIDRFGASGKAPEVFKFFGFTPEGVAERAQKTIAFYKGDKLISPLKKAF
Kind of experiment: Inhibition of S. cerevisiae transketolase.

In experiment [2] the target is T2, Porcine pyruvate dehydrogenase E1 subunit (Sus scrofa, UniProt P29804).
T2 sequence (P29804 30-390 limits assumed): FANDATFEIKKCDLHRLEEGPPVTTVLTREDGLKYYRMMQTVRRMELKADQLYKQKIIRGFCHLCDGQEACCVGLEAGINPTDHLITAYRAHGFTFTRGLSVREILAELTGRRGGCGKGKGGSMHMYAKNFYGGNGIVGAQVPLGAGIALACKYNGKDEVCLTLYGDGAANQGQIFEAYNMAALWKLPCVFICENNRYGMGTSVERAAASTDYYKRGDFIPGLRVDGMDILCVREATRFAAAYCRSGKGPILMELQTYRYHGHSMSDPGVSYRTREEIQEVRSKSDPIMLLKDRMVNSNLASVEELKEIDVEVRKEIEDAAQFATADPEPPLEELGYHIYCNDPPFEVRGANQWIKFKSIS
The experiment is described as follows: Inhibition of porcine pyruvate dehydrogenase E1 subunit. The conditions noted are these: pyruvate varied, 0-1.0 mM BAP.

Where only a bound is given, the exact number is not on record here.

Chain of E. coli DXP synthase (P77488 whole entry): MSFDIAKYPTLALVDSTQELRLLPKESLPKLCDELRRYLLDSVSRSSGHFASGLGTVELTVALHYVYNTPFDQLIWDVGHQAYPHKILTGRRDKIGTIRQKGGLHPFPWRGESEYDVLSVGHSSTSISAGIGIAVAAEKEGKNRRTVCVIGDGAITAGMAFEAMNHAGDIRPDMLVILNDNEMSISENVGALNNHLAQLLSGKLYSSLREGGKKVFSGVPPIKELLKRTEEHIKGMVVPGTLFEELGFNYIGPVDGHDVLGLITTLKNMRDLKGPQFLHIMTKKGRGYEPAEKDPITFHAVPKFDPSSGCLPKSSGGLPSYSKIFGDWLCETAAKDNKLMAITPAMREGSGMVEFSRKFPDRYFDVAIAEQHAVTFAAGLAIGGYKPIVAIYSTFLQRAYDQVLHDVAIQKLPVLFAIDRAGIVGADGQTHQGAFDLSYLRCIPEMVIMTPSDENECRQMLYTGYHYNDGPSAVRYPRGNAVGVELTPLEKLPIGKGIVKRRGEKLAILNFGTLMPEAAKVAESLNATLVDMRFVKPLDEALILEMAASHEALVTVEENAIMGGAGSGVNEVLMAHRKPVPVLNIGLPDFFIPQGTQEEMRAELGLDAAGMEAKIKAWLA

As a reminder, the Ki is a measure of affinity in units of concentration, obtained from inhibition or displacement. Read a low Ki as a stronger hold on the target. `COP(=O)([O-])C(C)=O.[Li+]` [Compound 1, Methylacetylphosphonate, reference compound]: at E. coli DXP synthase, the mode of inhibition entry is “competitive inhibitor against pyruvate”. For the same compound, the Ki in experiment [1] is greater than 1000 µM.
The like results for `CCOP(=O)([O-])C(C)=O.[Li+]` [Compound 2, Ethylacetylphosphonate] were, in that order, “competitive mode of inhibition” and greater than 1000 µM.
Take `CCCCOP(=O)([O-])C(C)=O.[Li+]` [Compound 3, butylacetylphosphonate]: the mode of inhibition entry at E. coli DXP synthase (listed as BAP) is reported as “competitive mode of inhibition”; in experiment [2] it was “Competitive inhibition”. Also, the inhibition constant (Ki) in experiment [1] is greater than 1000 µM.
Consider `CCC(=O)P(=O)(O)OC` [Compound 4], for which the Ki in experiment [1] is greater than 1000 µM.
In turn, `CCCC(=O)P(=O)(O)OC` [Compound 5] displayed an inhibition constant Ki in experiment [1] greater than 1000 µM.
Compound `CCCCC(=O)P(=O)(O)OC` [Compound 6] came in with an inhibition constant (Ki) in experiment [1] greater than 1000 µM.
